pIC50: −log10 of the molar value.
molecular target: T1, CETP (Homo sapiens, UniProt P11597); experiment: Assay of CETP Inhibition using Purified Components (Reconstituted Buffer Assay); type: biochemical; set-up: made in house; host or cells: CHO cells (serum-free conditioned medium); conditions: Inhibition of CETP activity in reconstituted buffer assay; transfer of [3H]CE from HDL to LDL; read-out: IC50
T1 sequence (P11597 18-493): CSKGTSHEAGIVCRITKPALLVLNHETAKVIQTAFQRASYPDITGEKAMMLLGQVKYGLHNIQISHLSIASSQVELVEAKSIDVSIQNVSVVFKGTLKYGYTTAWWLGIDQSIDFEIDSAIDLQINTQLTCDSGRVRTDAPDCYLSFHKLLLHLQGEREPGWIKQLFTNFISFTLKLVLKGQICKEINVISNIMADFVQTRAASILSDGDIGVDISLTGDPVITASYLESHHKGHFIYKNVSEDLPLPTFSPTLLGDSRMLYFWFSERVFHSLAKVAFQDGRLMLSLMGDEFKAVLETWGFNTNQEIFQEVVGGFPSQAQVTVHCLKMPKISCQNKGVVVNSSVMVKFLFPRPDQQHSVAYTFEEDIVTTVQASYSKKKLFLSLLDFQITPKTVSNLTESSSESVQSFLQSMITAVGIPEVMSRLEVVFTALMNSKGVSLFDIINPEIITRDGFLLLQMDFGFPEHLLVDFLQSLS
Summary of the method: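 Transfer of radiolabeled cholesteryl ester from HDL to LDL was run for 2 h at 37 °C in pH 7.4 Tris buffer with 1% BSA, using purified CHO-expressed human CETP. Precipitated LDL radioactivity, measured by scintillation after dextran sulfate/MgCl2 precipitation and filtration, yielded the IC50.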

| Structure (SMILES) | pIC50 |
| --- | --- |
| CC(C)(C)c1ccc(Oc2cccc(N(Cc3cccc(OC(F)(F)C(F)F)c3)CC(O)C(F)(F)F)c2)cc1 (centres unmarked) [Example 437] | 5.66 |
| N#Cc1ncccc1Oc1cccc(N(Cc2cccc(OC(F)(F)C(F)F)c2)CC(O)C(F)(F)F)c1 (centres unmarked) [Example 441] | 5.92 |
| O=C(O)c1cncc(Oc2cccc(N(Cc3cccc(OC(F)(F)C(F)F)c3)CC(O)C(F)(F)F)c2)c1 (centres unmarked) [Example 442] | 5.96 |
| OC(CN(Cc1cccc(OC(F)(F)C(F)F)c1)c1cccc(Oc2cc(F)ccn2)c1)C(F)(F)F (centres unmarked) [Example 443] | < 4.30 |
| OC(CN(Cc1cccc(OC(F)(F)C(F)F)c1)c1cccc(Oc2ncccc2C(F)(F)F)c1)C(F)(F)F (centres unmarked) [Example 444] | 5.82 |
| OC(CN(Cc1cccc(OC(F)(F)C(F)F)c1)c1cccc(Oc2ccc(C(F)(F)F)cn2)c1)C(F)(F)F (centres unmarked) [Example 445] | 5.55 |
| OC(CN(Cc1cccc(OC(F)(F)C(F)F)c1)c1cccc(Oc2ccc(Br)cn2)c1)C(F)(F)F (centres unmarked) [Example 446] | 5.92 |
| OC(CN(Cc1cccc(OC(F)(F)C(F)F)c1)c1cccc(Oc2cncnc2)c1)C(F)(F)F (centres unmarked) [Example 449] | 5.41 |
| CCNc1ccc(Oc2cccc(N(Cc3cccc(OC(F)(F)C(F)F)c3)CC(O)C(F)(F)F)c2)cc1 (centres unmarked) [Example 450B, 3-[[3-[4-(ethylamino)phenoxy]phenyl][[3-(1,1,2,2-tetrafluoroethoxy)phenyl]methyl]amino]-1,1,1-trifluoro-2-propanol] | 5.96 |
| OC(CN(Cc1cccc(OC(F)(F)C(F)F)c1)c1cccc(-c2ccccn2)c1)C(F)(F)F (centres unmarked) [Example 451, 3-[[3-(2-pyridinyl)phenyl][[3-(1,1,2,2-tetrafluoroethoxy)phenyl]methyl]amino]-1,1,1-trifluoro-2-propanol] | 4.89 |
| OC(CN(Cc1cccc(OC(F)(F)C(F)F)c1)c1cccc(-c2cccs2)c1)C(F)(F)F (centres unmarked) [Example 452] | 5.57 |
| OC(CN(Cc1cccc(OC(F)(F)C(F)F)c1)c1cccc(-c2ccco2)c1)C(F)(F)F (centres unmarked) [Example 453] | 5.10 |
| OC(CN(Cc1cccc(OC(F)(F)C(F)F)c1)c1cccc(-c2cccnc2)c1)C(F)(F)F (centres unmarked) [Example 454] | 5.34 |
| Cc1cccnc1-c1cccc(N(Cc2cccc(OC(F)(F)C(F)F)c2)CC(O)C(F)(F)F)c1 (centres unmarked) [Example 455] | 4.66 |
| CCOC(=O)c1cccc(N(Cc2cccc(OC(F)(F)C(F)F)c2)CC(O)C(F)(F)F)c1 (centres unmarked) [Example 456B, ethyl 3-[[[3-(1,1,2,2-tetra-fluoroethoxy)phenyl]methyl](3,3,3-trifluoro-2-hydroxypropyl)amino]-benzoate] | 5.82 |
| O=C(c1cccc(N(Cc2cccc(OC(F)(F)C(F)F)c2)CC(O)C(F)(F)F)c1)N1CCCCC1 (centres unmarked) [Example 456] | 5.04 |

| Structure (SMILES) | pIC50 |
| --- | --- |
| CC(C)NC(=O)c1cccc(N(Cc2cccc(OC(F)(F)C(F)F)c2)CC(O)C(F)(F)F)c1 (centres unmarked) [Example 457] | 4.89 |
| CCCCNC(=O)c1cccc(N(Cc2cccc(OC(F)(F)C(F)F)c2)CC(O)C(F)(F)F)c1 (centres unmarked) [Example 458] | 4.89 |
| O=C(NC1CCCCC1)c1cccc(N(Cc2cccc(OC(F)(F)C(F)F)c2)CC(O)C(F)(F)F)c1 (centres unmarked) [Example 459] | 5.48 |
| CC(C)(C)NC(=O)c1cccc(N(Cc2cccc(OC(F)(F)C(F)F)c2)CC(O)C(F)(F)F)c1 (centres unmarked) [Example 460] | 5.52 |
| O=C(NC1CCCC1)c1cccc(N(Cc2cccc(OC(F)(F)C(F)F)c2)CC(O)C(F)(F)F)c1 (centres unmarked) [Example 461] | 4.89 |
| CC(C)(C)CNC(=O)c1cccc(N(Cc2cccc(OC(F)(F)C(F)F)c2)CC(O)C(F)(F)F)c1 (centres unmarked) [Example 462] | 4.92 |
| O=C(NCC(F)(F)F)c1cccc(N(Cc2cccc(OC(F)(F)C(F)F)c2)CC(O)C(F)(F)F)c1 (centres unmarked) [Example 463] | 4.89 |
| O=C(NCC(F)(F)C(F)(F)C(F)(F)F)c1cccc(N(Cc2cccc(OC(F)(F)C(F)F)c2)CC(O)C(F)(F)F)c1 (centres unmarked) [Example 464] | 5.52 |
| O=C(NCc1ccccc1)c1cccc(N(Cc2cccc(OC(F)(F)C(F)F)c2)CC(O)C(F)(F)F)c1 (centres unmarked) [Example 465] | < 4.30 |
| O=C(NCc1cccc(OC(F)(F)F)c1)c1cccc(N(Cc2cccc(OC(F)(F)C(F)F)c2)CC(O)C(F)(F)F)c1 (centres unmarked) [Example 466] | 4.92 |
| O=C(NCc1ccc(F)cc1)c1cccc(N(Cc2cccc(OC(F)(F)C(F)F)c2)CC(O)C(F)(F)F)c1 (centres unmarked) [Example 467] | < 4.30 |
| CN(C(=O)c1cccc(N(Cc2cccc(OC(F)(F)C(F)F)c2)CC(O)C(F)(F)F)c1)c1ccccc1 (centres unmarked) [Example 468] | 4.46 |
| CN(Cc1ccccc1)C(=O)c1cccc(N(Cc2cccc(OC(F)(F)C(F)F)c2)CC(O)C(F)(F)F)c1 (centres unmarked) [Example 469] | < 4.30 |
| CN1CCN(C(=O)c2cccc(N(Cc3cccc(OC(F)(F)C(F)F)c3)CC(O)C(F)(F)F)c2)CC1 (centres unmarked) [Example 470] | < 4.30 |
| O=C(c1cccc(N(Cc2cccc(OC(F)(F)C(F)F)c2)CC(O)C(F)(F)F)c1)N1CCCC1 (centres unmarked) [Example 472] | 4.96 |

The remaining lines, values ahead:

| pIC50 | Structure (SMILES) |
| --- | --- |
| 5.22 | OC(CN(Cc1cccc(OC(F)(F)C(F)F)c1)c1cccc(Sc2ccncc2)c1)C(F)(F)F (centres unmarked) [Example 474] |
| < 4.30 | OC(CN(Cc1cccc(OC(F)(F)C(F)F)c1)c1cccc(SC2CCNCC2)c1)C(F)(F)F (centres unmarked) [Example 476] |
| 4.96 | OC(CN(Cc1cccc(OC(F)(F)C(F)F)c1)c1cccc(SCc2ccccn2)c1)C(F)(F)F (centres unmarked) [Example 477] |
| 5.74 | CC(=O)c1ccc(Sc2cccc(N(Cc3cccc(OC(F)(F)C(F)F)c3)CC(O)C(F)(F)F)c2)cc1 (centres unmarked) [Example 478] |
| < 4.30 | CS(=O)(=O)c1ccc(Sc2cccc(N(Cc3cccc(OC(F)(F)C(F)F)c3)CC(O)C(F)(F)F)c2)cc1 (centres unmarked) [Example 479] |
| 5.72 | OC(CN(Cc1cccc(OC(F)(F)C(F)F)c1)c1cccc(SCc2cc(Cl)cs2)c1)C(F)(F)F (centres unmarked) [Example 480] |
| 5.32 | CC(C)S(=O)(=O)c1cccc(N(Cc2cccc(OC(F)(F)C(F)F)c2)CC(O)C(F)(F)F)c1 (centres unmarked) [Example 482, 3-[[3-[(1-methylethyl)sulfonyl]phenyl][[3-(1,1,2,2-tetrafluoroethoxy)-phenyl]methyl]amino]-1,1,1-trifluoro-2-propanol] |
| 5.66 | O=[N+]([O-])c1ccc(S(=O)(=O)c2cccc(N(Cc3cccc(OC(F)(F)C(F)F)c3)CC(O)C(F)(F)F)c2)cc1 (centres unmarked) [Example 483] |
| < 4.30 | O=S(=O)(c1cccc(N(Cc2cccc(OC(F)(F)C(F)F)c2)CC(O)C(F)(F)F)c1)C1CCNCC1 (centres unmarked) [Example 484] |
| 5.00 | CC(=O)c1ccc(S(=O)(=O)c2cccc(N(Cc3cccc(OC(F)(F)C(F)F)c3)CC(O)C(F)(F)F)c2)cc1 (centres unmarked) [Example 486] |
| < 4.30 | CS(=O)(=O)c1ccc(S(=O)(=O)c2cccc(N(Cc3cccc(OC(F)(F)C(F)F)c3)CC(O)C(F)(F)F)c2)cc1 (centres unmarked) [Example 487] |
| 5.66 | COC(=O)COc1cccc(N(Cc2cccc(OC(F)(F)C(F)F)c2)CC(O)C(F)(F)F)c1 (centres unmarked) [Example 490] |
| 5.36 | N#CCOc1cccc(N(Cc2cccc(OC(F)(F)C(F)F)c2)CC(O)C(F)(F)F)c1 (centres unmarked) [Example 491] |
| 5.92 | CC(C)COc1cccc(N(Cc2cccc(OC(F)(F)C(F)F)c2)CC(O)C(F)(F)F)c1 (centres unmarked) [Example 492] |
| 5.74 | CCC(=O)COc1cccc(N(Cc2cccc(OC(F)(F)C(F)F)c2)CC(O)C(F)(F)F)c1 (centres unmarked) [Example 493] |
| 5.82 | CC(=O)CCCCOc1cccc(N(Cc2cccc(OC(F)(F)C(F)F)c2)CC(O)C(F)(F)F)c1 (centres unmarked) [Example 495] |
| 5.92 | COC(=O)CCCCOc1cccc(N(Cc2cccc(OC(F)(F)C(F)F)c2)CC(O)C(F)(F)F)c1 (centres unmarked) [Example 496] |
| 4.38 | O=S(=O)(CCOc1cccc(N(Cc2cccc(OC(F)(F)C(F)F)c2)CC(O)C(F)(F)F)c1)c1ccccc1 (centres unmarked) [Example 497] |
| < 4.30 | NC(=O)COc1cccc(N(Cc2cccc(OC(F)(F)C(F)F)c2)CC(O)C(F)(F)F)c1 (centres unmarked) [Example 500] |
| 5.44 | N#CCCCOc1cccc(N(Cc2cccc(OC(F)(F)C(F)F)c2)CC(O)C(F)(F)F)c1 (centres unmarked) [Example 501] |
| 5.24 | CC(Oc1cccc(N(Cc2cccc(OC(F)(F)C(F)F)c2)CC(O)C(F)(F)F)c1)C(=O)Nc1ccccc1 (centres unmarked) [Example 502] |
| 5.68 | O=C(COc1cccc(N(Cc2cccc(OC(F)(F)C(F)F)c2)CC(O)C(F)(F)F)c1)c1ccccc1 (centres unmarked) [Example 503] |
| 5.77 | COCCOc1cccc(N(Cc2cccc(OC(F)(F)C(F)F)c2)CC(O)C(F)(F)F)c1 (centres unmarked) [Example 505] |
| 5.64 | OC(CN(Cc1cccc(OC(F)(F)C(F)F)c1)c1cccc(OC2CCOCC2)c1)C(F)(F)F (centres unmarked) [Example 507] |
| 5.68 | CCCC(Oc1cccc(N(Cc2cccc(OC(F)(F)C(F)F)c2)CC(O)C(F)(F)F)c1)C(=O)OCC (centres unmarked) [Example 508] |
| < 4.30 | CN(C)CCOc1cccc(N(Cc2cccc(OC(F)(F)C(F)F)c2)CC(O)C(F)(F)F)c1 (centres unmarked) [Example 511] |
| 5.21 | CC(C)(CO)COc1cccc(N(Cc2cccc(OC(F)(F)C(F)F)c2)CC(O)C(F)(F)F)c1 (centres unmarked) [Example 512] |
| 5.68 | CC(C)(C)C(=O)COc1cccc(N(Cc2cccc(OC(F)(F)C(F)F)c2)CC(O)C(F)(F)F)c1 (centres unmarked) [Example 513] |
